From patent publication US20210308319A1, “TRANSITION TO TRANSLUCENT SUTURES” (University of Pittsburgh - Of the Commonwealth System of …, priority 2018, published 2021) come the findings set out here.

The data set in a line: UV-Vis spectroscopy of the rate of dissolution of dyes in water. The class given is physicochemical. The note with it: excess dye in cuvette, 320-800 nm, 0 to 10 minutes. Here is the method: An excess mass of both crystal violet and violet stearate was added to separate, clean polystyrene cuvettes. The spectrometer was calibrated to measure absorbance over the range of 320-800 nm. A background UV-Vis spectrum was then collected using a clean cuvette filled with distilled water (this spectrum is later subtracted from the dye solution spectrums to give the absorbance resulting from the dye only). The dye containing cuvettes were then loaded into the UV-Vis spectrometer. Water was then carefully syringed down the side of the first cuvette until the cuvettes were filled, and the spectrum immediately collected upon addition. […] The 20 minutes spectra are not included due to the fact they are very similar to the 10 minute spectra for both dyes tested.

Each structure is given as a SMILES string.

On to `CN(C)c1ccc(C(=C2C=CC(=[N+](C)C)C=C2)c2ccc(N(C)C)cc2)cc1` [Crystal Violet, crystal violet], for which the “Change of UV-Vis absorbance spectra over time after addition of water (rate of dissolution)” value is “do not change over time at all”. Regarding `CCCCCCCCCCCCCCCCCC(=O)[O-].CN(C)c1ccc(C(=C2C=CC(=[N+](C)C)C=C2)c2ccc(N(C)C)cc2)cc1` [Violet Stearate], the “Change of UV-Vis absorbance spectra over time after addition of water (rate of dissolution)” value was “definite increase in absorbance over time”.
